Experimental data taken from ChEMBL document CHEMBL1909046, “DrugMatrix in vitro pharmacology data”.

Assays:
[1] = molecular target: Sodium-dependent noradrenaline transporter (Homo sapiens, UniProt P23975); experiment: DRUGMATRIX: Norepinephrine Transporter radioligand binding (ligand: [125I] RTI-55); type: cell membranes, MDCK, Membrane; details: Not Active = under 50% inhibition at 10 µM
[2] = molecular target: T1, 5-hydroxytryptamine receptor 2C (Homo sapiens, UniProt P28335); experiment: DRUGMATRIX: Serotonin (5-Hydroxytryptamine) 5-HT2C radioligand binding (ligand: [3H] Mesulergine); type: cell membranes, CHO-K1, Membrane; details: Not Active = under 50% inhibition at 10 µM
T1 sequence (P28335 whole entry): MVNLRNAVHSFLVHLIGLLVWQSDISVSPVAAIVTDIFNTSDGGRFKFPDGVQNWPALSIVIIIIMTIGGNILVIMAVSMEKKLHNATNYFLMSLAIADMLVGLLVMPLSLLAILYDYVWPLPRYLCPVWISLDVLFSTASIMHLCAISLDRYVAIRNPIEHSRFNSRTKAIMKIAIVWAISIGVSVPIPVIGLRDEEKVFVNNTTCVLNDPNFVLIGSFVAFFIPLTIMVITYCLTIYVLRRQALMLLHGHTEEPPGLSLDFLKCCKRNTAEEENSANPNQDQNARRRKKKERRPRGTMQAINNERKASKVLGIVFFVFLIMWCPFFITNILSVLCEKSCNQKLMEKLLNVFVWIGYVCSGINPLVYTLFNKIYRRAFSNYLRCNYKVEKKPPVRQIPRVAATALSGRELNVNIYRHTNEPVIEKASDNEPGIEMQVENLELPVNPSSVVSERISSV

[3] = molecular target: T2, Cysteinyl leukotriene receptor 1 (Homo sapiens, UniProt Q9Y271); type: cell membranes, Membrane; details: cho-k1; further: in other assays of this panel Not Active means under 50% inhibition at 10 µM
T2 sequence (Q9Y271 whole entry): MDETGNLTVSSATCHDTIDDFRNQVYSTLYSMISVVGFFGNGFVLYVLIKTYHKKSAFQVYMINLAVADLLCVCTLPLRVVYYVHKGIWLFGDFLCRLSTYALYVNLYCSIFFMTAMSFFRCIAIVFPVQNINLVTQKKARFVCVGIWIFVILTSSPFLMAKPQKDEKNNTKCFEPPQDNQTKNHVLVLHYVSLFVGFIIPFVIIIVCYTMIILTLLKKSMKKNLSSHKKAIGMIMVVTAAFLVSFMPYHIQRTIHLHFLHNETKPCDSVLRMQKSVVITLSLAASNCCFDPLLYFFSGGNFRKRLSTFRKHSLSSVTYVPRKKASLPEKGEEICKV

[4] = molecular target: T3, Amine oxidase [flavin-containing] A (Homo sapiens, UniProt P21397); experiment: DRUGMATRIX: Monoamine Oxidase MAO-A enzyme inhibition (substrate: Kynuramine); design: species or system BTI-TN-5B1-4; details: Not Active = under 50% inhibition at 10 µM
T3 sequence (P21397 whole entry): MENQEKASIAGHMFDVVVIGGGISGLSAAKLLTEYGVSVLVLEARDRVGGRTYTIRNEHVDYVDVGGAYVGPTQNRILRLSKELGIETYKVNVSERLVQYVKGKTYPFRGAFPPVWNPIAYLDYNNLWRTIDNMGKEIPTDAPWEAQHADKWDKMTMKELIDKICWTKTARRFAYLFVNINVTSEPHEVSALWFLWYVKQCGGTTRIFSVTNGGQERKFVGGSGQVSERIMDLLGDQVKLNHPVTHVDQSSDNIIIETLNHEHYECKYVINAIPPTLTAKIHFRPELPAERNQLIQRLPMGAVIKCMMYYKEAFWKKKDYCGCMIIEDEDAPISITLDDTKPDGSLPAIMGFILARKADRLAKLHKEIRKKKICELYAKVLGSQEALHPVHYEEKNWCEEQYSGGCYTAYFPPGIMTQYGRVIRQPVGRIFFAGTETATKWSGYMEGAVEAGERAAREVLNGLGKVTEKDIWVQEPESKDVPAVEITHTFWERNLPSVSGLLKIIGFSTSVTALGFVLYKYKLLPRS

Cytochrome P450 2C19 = Cytochrome P450 2C19 (Homo sapiens, UniProt P33261); details: bti-tn-5b1-4; further: in other assays of this panel Not Active means under 50% inhibition at 10 µM
Cytochrome P450 2C9 = Cytochrome P450 2C9 (Homo sapiens, UniProt P11712); details: bti-tn-5b1-4; further: in other assays of this panel Not Active means under 50% inhibition at 10 µM
Cytochrome P450 2C9, sequence (P11712 whole entry): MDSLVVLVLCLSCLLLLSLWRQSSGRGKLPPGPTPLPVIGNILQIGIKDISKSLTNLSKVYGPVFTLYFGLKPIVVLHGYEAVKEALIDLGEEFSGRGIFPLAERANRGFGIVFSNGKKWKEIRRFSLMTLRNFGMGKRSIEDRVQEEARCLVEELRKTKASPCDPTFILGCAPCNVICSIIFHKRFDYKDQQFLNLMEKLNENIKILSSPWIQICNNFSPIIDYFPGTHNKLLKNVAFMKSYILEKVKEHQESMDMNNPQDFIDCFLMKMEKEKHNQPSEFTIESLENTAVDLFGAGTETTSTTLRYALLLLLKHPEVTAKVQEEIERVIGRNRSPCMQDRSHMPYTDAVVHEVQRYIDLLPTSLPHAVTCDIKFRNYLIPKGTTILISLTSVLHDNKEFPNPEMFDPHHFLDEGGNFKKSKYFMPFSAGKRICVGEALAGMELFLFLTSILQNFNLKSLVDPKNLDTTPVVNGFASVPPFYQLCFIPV

Cytochrome P450 2C19, sequence (P33261 whole entry): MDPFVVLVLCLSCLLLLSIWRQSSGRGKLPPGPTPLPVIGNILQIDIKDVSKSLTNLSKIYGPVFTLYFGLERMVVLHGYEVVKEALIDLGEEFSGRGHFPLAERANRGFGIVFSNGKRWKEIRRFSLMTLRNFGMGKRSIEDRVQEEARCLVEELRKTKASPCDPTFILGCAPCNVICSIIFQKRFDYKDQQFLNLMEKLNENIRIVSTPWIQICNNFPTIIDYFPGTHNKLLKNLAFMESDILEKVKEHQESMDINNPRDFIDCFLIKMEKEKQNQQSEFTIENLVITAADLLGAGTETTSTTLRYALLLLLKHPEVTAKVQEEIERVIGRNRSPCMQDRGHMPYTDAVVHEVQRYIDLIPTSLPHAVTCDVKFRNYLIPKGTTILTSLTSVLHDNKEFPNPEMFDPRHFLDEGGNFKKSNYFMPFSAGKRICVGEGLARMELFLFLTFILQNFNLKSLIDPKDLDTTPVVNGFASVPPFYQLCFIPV
Sodium-dependent noradrenaline transporter, sequence (P23975 whole entry): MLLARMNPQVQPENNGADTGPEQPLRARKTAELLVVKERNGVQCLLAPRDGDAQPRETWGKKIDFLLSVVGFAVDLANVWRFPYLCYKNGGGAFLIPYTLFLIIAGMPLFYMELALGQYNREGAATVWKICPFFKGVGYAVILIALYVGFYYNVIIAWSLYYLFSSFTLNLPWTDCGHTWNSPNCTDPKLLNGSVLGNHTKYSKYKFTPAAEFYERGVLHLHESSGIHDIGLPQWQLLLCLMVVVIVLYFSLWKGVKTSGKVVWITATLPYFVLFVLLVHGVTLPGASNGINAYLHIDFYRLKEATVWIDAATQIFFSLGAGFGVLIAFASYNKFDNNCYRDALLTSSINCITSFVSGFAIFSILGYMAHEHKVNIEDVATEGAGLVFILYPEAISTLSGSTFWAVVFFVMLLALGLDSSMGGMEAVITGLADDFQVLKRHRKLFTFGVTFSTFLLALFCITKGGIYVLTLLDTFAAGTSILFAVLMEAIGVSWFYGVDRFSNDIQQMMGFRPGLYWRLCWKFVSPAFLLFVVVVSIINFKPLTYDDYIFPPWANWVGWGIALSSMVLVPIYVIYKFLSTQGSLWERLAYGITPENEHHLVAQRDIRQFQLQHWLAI

| Molecule | IC50 ([1]; mdck) | IC50 ([2]; cho-k1) | IC50 [3] | IC50 ([4]; bti-tn-5b1-4) | IC50 (Cytochrome P450 2C19) | Ki (Cytochrome P450 2C19) | IC50 (Cytochrome P450 2C9) | Ki (Cytochrome P450 2C9) | IC50 ([1]; read-out: IC50) | Ki ([1]; read-out: Ki) | IC50 ([2]; read-out: IC50) | Ki ([2]; read-out: Ki) | IC50 ([4]; read-out: IC50) | Ki ([1]; mdck) | Ki ([2]; cho-k1) | Ki [3] | Ki ([4]; bti-tn-5b1-4) |
| --- | --- | --- | --- | --- | --- | --- | --- | --- | --- | --- | --- | --- | --- | --- | --- | --- | --- |
| Cc1c(N(C)CS(=O)(=O)[O-])c(=O)n(-c2ccccc2)n1C.[Na+] [DIPYRONE SODIUM] | Not Active | Not Active | Not Active | Not Active | Not Active | Not Active | Not Active | Not Active | – | – | – | – | – | – | – | – | – |
| CC(CCc1ccc(O)cc1)NCCc1ccc(O)c(O)c1 (configuration not stated) [DOBUTAMINE] | – | Not Active | Not Active | Not Active | Not Active | Not Active | Not Active | Not Active | 383 nM | 380 nM | – | – | – | – | – | – | – |
| CCn1cc(C(=O)O)c(=O)c2cc(F)c(N3CCNCC3)nc21 [ENOXACIN] | Not Active | Not Active | Not Active | Not Active | Not Active | Not Active | Not Active | Not Active | – | – | – | – | – | – | – | – | – |
| CCC(=O)O[C@H]1[C@H](O[C@@H]2[C@@H](C)[C@H](O[C@H]3C[C@@](C)(OC)[C@@H](O)[C@H](C)O3)[C@@H](C)C(=O)O[C@H](CC)[C@@](C)(O)[C@H](O)[C@@H](C)C(=O)[C@H](C)C[C@@]2(C)O)O[C@H](C)C[C@@H]1N(C)C [ERYTHROMYCIN PROPIONATE] | Not Active | Not Active | Not Active | Not Active | Not Active | Not Active | Not Active | Not Active | – | – | – | – | – | – | – | – | – |
| C=C(CC)C(=O)c1ccc(OCC(=O)O)c(Cl)c1Cl [ETHACRYNIC ACID] | Not Active | Not Active | Not Active | Not Active | Not Active | Not Active | Not Active | Not Active | – | – | – | – | – | – | – | – | – |
| OCCO [ETHYLENE GLYCOL] | Not Active | Not Active | Not Active | Not Active | Not Active | Not Active | Not Active | Not Active | – | – | – | – | – | – | – | – | – |
| CC(=O)OCC(CCn1cnc2cnc(N)nc21)COC(C)=O [FAMCICLOVIR] | Not Active | Not Active | Not Active | Not Active | Not Active | Not Active | Not Active | Not Active | – | – | – | – | – | – | – | – | – |
| CC(C(=O)O)c1ccc(-c2ccccc2)c(F)c1 (configuration not stated) [FLURBIPROFEN] | Not Active | Not Active | Not Active | Not Active | Not Active | Not Active | Not Active | Not Active | – | – | – | – | – | – | – | – | – |
| NC[C@@H]1O[C@H](O[C@H]2[C@@H](O)[C@H](O[C@@H]3[C@@H](O)[C@H](N)C[C@H](N)[C@H]3O[C@H]3O[C@H](CN)[C@@H](O)[C@H](O)[C@H]3N)O[C@@H]2CO)[C@H](N)[C@@H](O)[C@@H]1O [FRAMYCETIN] | Not Active | Not Active | Not Active | Not Active | Not Active | Not Active | Not Active | Not Active | – | – | – | – | – | – | – | – | – |
| C[C@H]([C@](O)(Cn1cncn1)c1ccc(F)cc1F)S(C)(=O)=O [GENACONAZOLE] | Not Active | Not Active | Not Active | Not Active | Not Active | Not Active | Not Active | Not Active | – | – | – | – | – | – | – | – | – |
| Cc1c(F)c(N2CCNC(C)C2)cc2c1c(=O)c(C(=O)O)cn2C1CC1 (configuration not stated) [GREPAFLOXACIN] | Not Active | Not Active | Not Active | Not Active | Not Active | Not Active | Not Active | Not Active | – | – | – | – | – | – | – | – | – |
| N=C(N)N/N=C/c1c(Cl)cccc1Cl [GUANABENZ] | Not Active | – | Not Active | – | Not Active | Not Active | Not Active | Not Active | – | – | 204 nM | 107 nM | 1790 nM | – | – | – | – |
| NC[C@H]1O[C@H](O[C@H]2[C@H](O)[C@@H](O[C@H]3O[C@H](CO)[C@@H](O)[C@H](N)[C@H]3O)[C@H](N)C[C@@H]2N)[C@H](O)[C@@H](O)[C@@H]1O [KANAMYCIN] | Not Active | Not Active | Not Active | Not Active | Not Active | Not Active | Not Active | Not Active | – | – | – | – | – | – | – | – | – |
| CC(C(=O)O)c1ccc(CC2CCCC2=O)cc1 (configuration not stated) [LOXOPROFEN] | Not Active | Not Active | Not Active | Not Active | Not Active | Not Active | Not Active | Not Active | – | – | – | – | – | – | – | – | – |
| Cc1cccc(Nc2ccccc2C(=O)O)c1C [MEFENAMIC ACID] | Not Active | Not Active | Not Active | Not Active | Not Active | Not Active | Not Active | Not Active | – | – | – | – | – | – | – | – | – |
| COc1ccccc1OCC(O)COC(N)=O (configuration not stated) [METHOCARBAMOL] | Not Active | Not Active | Not Active | Not Active | Not Active | Not Active | Not Active | Not Active | – | – | – | – | – | – | – | – | – |
| COC(=O)c1ccccc1O [METHYL SALICYLATE] | Not Active | Not Active | Not Active | Not Active | Not Active | Not Active | Not Active | Not Active | – | – | – | – | – | – | – | – | – |
| C[C@]12C/C(=C/O)C(=O)C[C@@H]1CC[C@@H]1[C@@H]2CC[C@@]2(C)[C@H]1CC[C@]2(C)O [OXYMETHOLONE] | Not Active | Not Active | Not Active | Not Active | Not Active | Not Active | Not Active | Not Active | – | – | – | – | – | – | – | – | – |
| CC(C)(CO)C(O)C(=O)NCCCO (configuration not stated) [PANTHENOL] | Not Active | Not Active | Not Active | Not Active | Not Active | Not Active | Not Active | Not Active | – | – | – | – | – | – | – | – | – |
| CCCCC1C(=O)N(c2ccccc2)N(c2ccccc2)C1=O [PHENYLBUTAZONE] | Not Active | Not Active | Not Active | Not Active | Not Active | Not Active | Not Active | Not Active | – | – | – | – | – | – | – | – | – |
| Cc1cccc(Nc2cc(Cl)nc(SCC(=O)O)n2)c1C [PIRINIXIC ACID] | Not Active | Not Active | Not Active | Not Active | Not Active | Not Active | Not Active | Not Active | – | – | – | – | – | – | – | – | – |
| CC[C@H](C)C(=O)O[C@H]1C[C@H](O)C=C2C=C[C@H](C)[C@H](CC[C@@H](O)C[C@@H](O)CC(=O)O)[C@H]21 [PRAVASTATIN] | Not Active | Not Active | Not Active | Not Active | Not Active | Not Active | Not Active | Not Active | – | – | – | – | – | – | – | – | – |
| COBALT(II) ACETYLACETONATE | Not Active | Not Active | Not Active | Not Active | Not Active | Not Active | Not Active | Not Active | – | – | – | – | – | Not Active | Not Active | Not Active | Not Active |
| INSULIN HUMAN | Not Active | Not Active | Not Active | Not Active | Not Active | Not Active | Not Active | Not Active | – | – | – | – | – | Not Active | Not Active | Not Active | Not Active |
